From article PMC8666671, “Fine-tuning spermidine binding modes in the putrescine binding protein PotF” (The Journal of Biological Chemistry, 2021) come the findings set out here.

For one test, the target named is T1, PotF_Prox (Escherichia coli, UniProt P31133, D247S/D39E/S38T).
T1 construct: without the N-terminal signal peptide; made in house; host or cells: E. coli BL21 (DE3)
T1 sequence (P31133 27-370 S38T/D39E/D247S): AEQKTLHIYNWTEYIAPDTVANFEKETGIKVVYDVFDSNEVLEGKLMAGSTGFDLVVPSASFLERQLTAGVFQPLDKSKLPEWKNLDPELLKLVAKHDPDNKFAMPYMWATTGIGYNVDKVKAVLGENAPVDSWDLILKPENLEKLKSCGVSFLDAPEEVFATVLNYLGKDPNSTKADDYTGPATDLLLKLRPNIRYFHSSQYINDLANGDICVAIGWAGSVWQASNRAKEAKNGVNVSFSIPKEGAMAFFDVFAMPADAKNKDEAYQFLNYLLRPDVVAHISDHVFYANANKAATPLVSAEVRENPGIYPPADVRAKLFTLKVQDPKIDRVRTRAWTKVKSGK
Description: ITC, PotF_Prox (S38T, D39E, D247S). In kind it is binding. As to conditions: 293 K, 50 mM Tris pH 8, 300 mM NaCl, biological triplicates. The procedure:
(§1) Ligands were always freshly prepared in the exact same buffer as was used for the size exclusion run. Samples were degassed, and temperature was equilibrated using a degassing station (TA Instruments). About 400 μl protein sample of different concentrations (Table S5) depending on affinity was transferred into the sample cell of a nanoITC (TA Instruments), and 50 μl of about tenfold concentrated ligand solution was loaded into the injection needle. Multiple injection measurements were carried out at 293 K, 300 rpm stirring rate, and 250 s spacings between each 2 μl injection. The heat quantity past injection was determined by integration of the measured peaks. Every protein–ligand combination was measured as biological triplicate. Subtraction of heat of dilution measurements, peak integration, and one site binding fits were done with NanoAnalyze (TA Instruments). Reported errors are the errors between fits of the measured triplicates.

In another test the target is T2, PotF/D (Escherichia coli, UniProt P31133, A182D/D247S/D39E/F276W/L348Q/S38T/S87Y).
T2 construct: without the N-terminal signal peptide; made in house; host or cells: E. coli BL21 (DE3)
T2 sequence (P31133 27-370 S38T/D39E/S87Y/A182D/D247S/F276W/L348Q): T1 sequence (P31133 27-370 S38T/D39E/D247S) with S61Y, A156D, F250W, L322Q
Description: ITC, PotF/D (PotF_SPD; seven PotD binding pocket residues grafted onto PotF). As to conditions: 293 K. The procedure: as §1

Substitutions are numbered along the chain they refer to. pKd: −log10 of the molar value. Where “and” joins values, the source holds several entries; their conditions need not be identical. Equal values may be shown once.

In the case of `NCCCCN` [PUT, putrescine], the KD entry on PotF_Prox is “abolishes association”.
Consider `NCCCCNCCCN` [SPD, spermidine], for which the n on PotF/D (ITC binding stoichiometry) is listed as 0.94 ± 0.02. At PotF/D (ITC), the ΔG is -5.94 ± 0.04 kcal/mol, the ΔH was -9.30 ± 0.20 kcal/mol and the “−TΔS” value is 3.36 ± 0.24 kcal/mol. In addition, on PotF/D (ITC, 50 mM Tris pH 8, 300 mM NaCl, biological triplicates), the pKd is ~4.43 and 4.43.
